US20200352889A1, “CYSTATHIONINE COMPOSITIONS AND METHODS OF TREATMENT FOR HEALTH CONDITIONS” (THE REGENTS OF THE UNIVERSITY OF COLORADO, A BODY CORPORATE, priority 2011, published 2020)

Columns and labels:
Grp78, Grp94, GADD153 = assay: Northern and Western blotting of UPR induction in 293AD cells; format: cell-based, human
Protocol: To further assess the effect of cystathionine upon induction of the UPR and GADD153 by ER stress Northern and Western blotting experiments were performed.
Immunoblot analysis of total cell lysates was performed as described previously (4,14). Briefly, following incubation with the appropriate primary and horseradish peroxidase-conjugated secondary antibodies (Affinity Biologicals, Ancaster, ON, Canada) membranes were developed using the Renaissance® Western Blot Chemiluminescence Reagent Kit, (Perkin Elmer, Woodbridge, ON, Canada). Proteins were transferred on a nitrocellulose membrane, and probed with anti-KDEL monoclonal antibody, which recognizes Hsp70, GRP78 and GRP94 that was purchased from Stressgen Biotechnologies (SPA-827) or anti GADD153 (Santa Cruz Biotech #SC-7351). Anti-β-Actin monoclonal antibody (Sigma) was used as a loading control.
Total RNA was isolated from 293AD cells using the RNeasy® total RNA kit (Qiagen, Santa Clarita, Calif.) and resuspended in diethylpyrocarbonate (DEPC)-treated water. Quantification and purity of the RNA was assessed by A260/A280 absorption, and RNA samples with ratios greater than 1.6 were stored at […] for further analysis. Total RNA (10 μg/lane) was fractionated on 2.2 mol/L formaldehyde/1.2% agarose gels and transferred overnight onto Zeta-Probe® GT nylon membranes (Bio-Rad, Toronto, Canada) in 10×SSC. The RNA was cross-linked to the membrane using a UV crosslinker (PDI Bioscience, Toronto, Canada) before hybridization. Specific probes were generated by labeling cDNA fragments with [−32P]dCTP (NEN) using a random primed DNA labeling kit (Boehringer Mannheim, Laval, Canada). The cDNA probe for GADD153 (no. AA627477) was obtained from Genome Systems (St Louis, Mo.). The cDNA probe used for GRP78 is a full length cDNA clone that has been described previously (4). After overnight hybridization at 43° C., the membranes were washed as described by the manufacturer, exposed to x-ray film, and subjected to autoradiography.

CGL = molecular target: T1, CGL (Mus musculus, UniProt Q8VCN5); assay: Daily injection of PPG in WT mice, plasma cystathionine, Hcy, methionine and cysteine; format: in vivo
T1 construct: endogenous in cells; host or cells: C57BL/6J wild-type mice (whole animal, in vivo)
Protocol: It is believed that the longevity of this cystathionine accumulation with repeated injections of PPG over time in mice has not been properly examined. Consequently, daily injections of PPG were given to WT mice (n=7) each morning over a period of 4 days. Plasma samples were taken from these mice in the evening of each day by non-lethal tail bleed and the levels of cystathionine, Hcy, methionine and cysteine were determined (FIG. 4). Inactivation of CGL was observed and was accompanied by a 56-fold increase in the plasma level of cystathionine on day 1. […] Cysteine levels subsequently returned to near normal levels as the effects of the PPG treatment diminished.
Propensity for hepatic steatosis was examined in HO and wild type control mice using a methionine-choline deficient amino acid defined and iron supplemented diet (#518810 Dyets Inc., Bethlehem, Pa.)) and an isocaloric amino acid defined Lombardi choline sufficient diet with methionine control diet (518754, Dyets Inc., Bethlehem, Pa.) for 19 days as described previously (7). Experimental hypercystathionemia was induced by IP injection of the CGL inactivator PPG (50 mg·day-1·kg-1) as described previously (8). ER stress was induced in mice by a single IP injection with tunicamycin at 0.5 mg/kg body weight (volume <=1.0 ml). Control mice were sham treated by injection with an equal volume of PBS (9,10).
Determination of plasma levels of methionine cycle metabolites was performed as described previously (11).
Previous work by Abeles and Walsh synthesized and tested a range of acetylenic substrates capable of irreversible inactivation of CGL. […] For our purposes this method has the additional benefit of allowing us to investigate the possible protective effects of elevated cystathionine in isolation from its role as a cysteine donor. To our knowledge, the longevity of this cystathionine accumulation with repeated injections of PPG over time in mice has not been examined. Daily injections of PPG to WT mice were given (n=7) each morning over a period of 4 days. Plasma samples were taken from these mice in the evening of each day by non-lethal tail bleed and the levels of cystathionine, Hcy, methionine and cysteine were determined (FIG. 4). It was observed that inactivation of CGL was accompanied by a 56-fold increase in the plasma level of cystathionine on day 1. […] Cysteine levels subsequently returned to near normal levels as the effects of the PPG treatment diminished. These experiments allowed us to define an optimal time frame for examining the possible protective effects of PPG mediated cystathionine accumulation in WT mice. The effect of PPG on liver health was assessed by determining ALT values before PPG treatment and at each subsequent time point studied.

hepatic CGL = conditions: I.P. injection; cited from earlier work
[1] = test system: WT mice treated with thapsagargin; assay: Thapsagargin-induced acute tubular necrosis in WT mice in the presence and absence of PPG; format: in vivo, mouse; conditions: single IP thapsagargin + daily PPG, three days
Description: (§1) Wild type mice (WT; n=6) to a single sub-lethal intraperitoneal injection of thapsagargin in the presence and absence of the CGL inactivating compound propargylglycine (PPG). WT mice were randomly assigned to one of four treatment groups (n=6 for each group): 1). control, IP injected with PBS (See FIG. 13, Panel A); 2). I.P. injection with PPG (See FIG. 13, Panel B); 3). single I.P […] thapsagargin (See FIG. 13, Panel C); and 4). thapsagargin+PPG (See FIG. 13, Panel D). In groups 2 and 4, PPG treatment was maintained by daily injection until sacrifice at three days post vehicle/thapsagargin injection. After the completion of this treatment regime, all mice were anaesthetized (isoflourane/oxygen) and sacrificed by decapitation.
as §1, with “(See” for “(See FIG. 13,”, “After the completion of this treatment regime, all mice were anaesthetized (isoflourane/oxygen) and sacrificed by decapitation.” left out

[2] = daily PPG IP, declined back to normal as PPG efficacy diminished

T1 sequence (Q8VCN5 whole entry): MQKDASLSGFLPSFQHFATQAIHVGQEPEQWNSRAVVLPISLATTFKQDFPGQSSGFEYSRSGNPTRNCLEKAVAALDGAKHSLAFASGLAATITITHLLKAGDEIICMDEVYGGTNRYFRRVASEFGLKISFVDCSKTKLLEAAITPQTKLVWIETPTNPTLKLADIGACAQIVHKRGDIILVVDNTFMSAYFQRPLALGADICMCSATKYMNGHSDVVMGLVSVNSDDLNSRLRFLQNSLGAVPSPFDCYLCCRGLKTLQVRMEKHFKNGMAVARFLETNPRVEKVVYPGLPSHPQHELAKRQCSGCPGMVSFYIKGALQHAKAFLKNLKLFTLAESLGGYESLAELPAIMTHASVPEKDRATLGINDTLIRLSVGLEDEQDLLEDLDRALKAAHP

Q: With C#CCC(N)C(=O)O (racemic) [PPG, D,L-2-amino-4-pentynoic acid] as the molecule, how does the “expression of Grp78, Grp94 and GADD15 in control cells” value (Grp78, Grp94, GADD153; PPG 5 mM or cystathionine 5 mM, no tunicamycin) read?
A: Neither PPG nor exogenously added cystathionine induced expression

Q: What about the “scale of induction of Grp78, Grp94 and GADD153 in the presence of tunicamycin” value (Grp78, Grp94, GADD153; tunicamycin 5 and 10 μg/ml) of the same molecule?
A: Nor did either of these treatments significantly alter the scale of induction

Q: What about the “increase in the plasma level of cystathionine” value (shortened to “increase in the plasma level”) (CGL; daily PPG IP 50 mg/kg/day, day 1, vs untreated animals) of the same molecule?
A: 56 fold

Q: And the “increase in the plasma level” value (CGL; daily PPG IP, day 3)?
A: 30 fold

Q: And the “increase in the plasma level” value (CGL; daily PPG IP, day 4, vs untreated animals)?
A: 8 fold

Q: What about the plasma methionine (CGL; [2]) of the same molecule?
A: relatively mild elevation

Q: What about the “plasma total Hcy (tHcy)” value (CGL; [2]) of the same molecule?
A: relatively mild elevation

Q: And the plasma cysteine levels (CGL; daily PPG IP, first and second days)?
A: concomitant decrease

Q: What about the plasma cystathionine accumulation (CGL; daily PPG IP, second day) of the same molecule?
A: maximal accumulation persisted

Q: What about the “duration of cystathionine accumulation” value (hepatic CGL) of the same molecule?
A: approximately one day

Q: What about the “inactivation of hepatic CGL activity” value (hepatic CGL) of the same molecule?
A: rapidly inactivate

Q: And the “time to accumulation of cystathionine” value (hepatic CGL)?
A: within one hour

Q: What about the “thapsagargin-induced renal morphological changes (acute tubular necrosis, histology)” value [1] of the same molecule?
A: completely ablated
